Reference: patent US20240336566A1, “CRYSTALLINE FORMS OF A COMPOUND FOR THE TARGETED DEGRADATION OF THE ANDROGEN RECEPTOR” (Arvinas Operations, Inc., priority 2023, published 2024)
Where two headings read alike, the source gives them in different places.

Assay: Primary salt screen: XRPD post temperature cycling/evaporation, post drying and post storage at 40° C./75% RH
Type: physicochemical
Protocol: • 30 mg samples of Compound A were weighed out into 2 mL screw cap sample vials for 96 experiments. To these, 200 μL of the appropriate solvent system was added to dissolve the material or form a slurry. See Table 16 for the solvent systems selected for the primary salt screen.
• 1.05 eq. of solid counterions were weighed into six separate vials each and 1 molar stock solutions were prepared for liquid counterions in 5 mL of THF. See Table 17 for selected counterions and mass/volume needed for 1.05 eq. additions. • 100 μL of the appropriate solvent was added to the solid counterions.
The solution/slurry of counterion was added to the solution/slurry of the free base material.
• The samples were placed in an incubator shaker to temperature cycle between ambient and 40° C. over 4 hour cycles. • After ca. 72 hours of temperature cycling, observations were noted, see Table 19.
• Where slurries were obtained, the solids were isolated via centrifugation. Solids and gels were analyzed by XRPD.
Any samples that were clear solutions after temperature cycling were left to evaporate at ambient conditions. See Table 20 for observations made after evaporation. Solids obtained through evaporation were analyzed by XRPD.
• The samples obtained from temperature cycling were dried under vacuum at 40° C. for ca. 20 hours while the samples obtained from evaporation were dried under vacuum at 40° C. for ca. 4 hours. […]

[1] = Compound A + 1.05 eq. counterion (= label), 1,4-Dioxane
[2] = Compound A + 1.05 eq. counterion (= label), 1,4-Dioxane, dried under vacuum at 40° C.
[3] = Compound A + 1.05 eq. counterion (= label), 1,4-Dioxane, stored ca. 20 hours
[4] = Compound A + 1.05 eq. counterion (= label), DCM
[5] = Compound A + 1.05 eq. counterion (= label), DCM, dried under vacuum at 40° C.
[6] = Compound A + 1.05 eq. counterion (= label), DCM, stored ca. 20 hours
[7] = Compound A + 1.05 eq. counterion (= label), DMSO:Water (50:50 % v/v)
[8] = Compound A + 1.05 eq. counterion (= label), DMSO:Water (50:50 % v/v), stored ca. 20 hours
[9] = Compound A + 1.05 eq. counterion (= label), THF
[10] = Compound A + 1.05 eq. counterion (= label), THF:Water (98:2 % v/v)
[11] = Compound A + 1.05 eq. counterion (= label), THF, dried under vacuum at 40° C.
[12] = Compound A + 1.05 eq. counterion (= label), THF, stored ca. 20 hours
[13] = Compound A + 1.05 eq. counterion (= label), DCM:Methanol (50:50 % v/v)
[14] = Compound A + 1.05 eq. counterion (= label), DCM:Methanol (50:50 % v/v), dried under vacuum at 40° C.
[15] = Compound A + 1.05 eq. counterion (= label), DCM:Methanol (50:50 % v/v), stored ca. 20 hours
[16] = Compound A + 1.05 eq. counterion (= label), DMSO:Water (50:50 % v/v), dried under vacuum at 40° C.
[17] = Compound A + 1.05 eq. counterion (= label), THF:Water (98:2 % v/v), dried under vacuum at 40° C.
[18] = Compound A + 1.05 eq. counterion (= label), THF:Water (98:2 % v/v), stored ca. 20 hours

| XRPD results post temperature cycling and evaporation [1] | XRPD results post drying [2] | XRPD results post 40° C./75% RH [3] | XRPD results post temperature cycling and evaporation [4] | XRPD results post drying [5] | XRPD results post 40° C./75% RH [6] | XRPD results post temperature cycling and evaporation [7] | XRPD results post 40° C./75% RH [8] | XRPD results post temperature cycling and evaporation [9] | XRPD results post temperature cycling and evaporation [10] | XRPD results post drying [11] | XRPD results post 40° C./75% RH [12] | XRPD results post temperature cycling and evaporation [13] | XRPD results post drying [14] | XRPD results post 40° C./75% RH [15] | XRPD results post drying [17] | XRPD results post 40° C./75% RH [18] | SMILES | also measured |
| --- | --- | --- | --- | --- | --- | --- | --- | --- | --- | --- | --- | --- | --- | --- | --- | --- | --- | --- |
| A t | A t | A t | A e | A e | A e | A e | A e h | A t | S e | A t | A t |  |  |  |  |  | O=S(=O)(O)c1ccccc1 [Benzenesulfonic acid] |  |
| S t * | A t d | A t | A e | A e | A e |  |  | A e |  | A e | A e | A e | A e | A e |  |  | O=C(O)/C=C/C(=O)O [Fumaric acid] |  |
|  |  |  |  |  |  |  |  |  |  |  |  |  |  |  |  |  | O=S(=O)(O)O [Sulfuric acid] | XRPD results post 40° C./75% RH: A t and A e; XRPD results post drying: A t and A e; XRPD results post temperature cycling and evaporation: A t and A e |
| A t | A t | A t | A e | A e | A e | A t | A t | S t | A e |  |  | A e | A e | A e | A e | A e | Cc1ccc(S(=O)(=O)O)cc1 [p-Toluenesulfonic acid] | XRPD results post drying [16]: A t |
|  |  |  | C e | A e d | C e h | A t |  |  |  |  |  |  |  |  |  |  | O=C(O)CCC(=O)O [Succinic acid] |  |
|  |  |  |  |  |  |  | A t h |  |  |  |  |  |  |  |  |  | CC(=O)O [Acetic acid] |  |
| A t | A t | A t | A e | A e | A e | A t | A t |  | A e |  |  |  |  |  | A e | A e | CS(=O)(=O)O [Methanesulfonic acid] | XRPD results post drying [16]: A t |
|  |  |  | C e | C e | C e | A t |  |  |  |  |  |  |  |  |  |  | N[C@@H](CCC(=O)O)C(=O)O [l-Glutamic] |  |
| A t | A t | A t | A e | A e | A e | A t | A t | A e | A e | A e | A e | A e | A e | A e | A e | A e | O=C(O)CC(O)(CC(=O)O)C(=O)O [Citric acid] | XRPD results post drying [16]: A t |
| A t | A t | A t | S t * |  | A t h |  |  | S t | S t |  |  | S t * |  |  |  |  | O=P(O)(O)O [Phosphoric acid] |  |
|  |  |  | A e | A e | A e | A t |  | A e |  | A e | A e |  |  |  |  |  | O=C(O)C[C@H](O)C(=O)O [l-Malic acid] |  |
| S t * |  | A t h | C e | A e d | A e | A t | A t | A e | A e | A e | A e | A e | A e | A e | A e | A e | O=C(O)/C=C\C(=O)O [Maleic acid] | XRPD results post drying [16]: A t |
|  |  |  | A e | A e | A e | A t |  | A e | A e | A e | A e | A e | A e | A e | A e | A e | O=C(O)CC(=O)O [Malonic acid] |  |

| SMILES | XRPD results post temperature cycling and evaporation [1] | XRPD results post drying [2] | XRPD results post 40° C./75% RH [3] | XRPD results post temperature cycling and evaporation [4] | XRPD results post drying [5] | XRPD results post 40° C./75% RH [6] | XRPD results post temperature cycling and evaporation [7] | XRPD results post 40° C./75% RH [8] | XRPD results post temperature cycling and evaporation [9] | XRPD results post temperature cycling and evaporation [10] | XRPD results post drying [11] | XRPD results post 40° C./75% RH [12] | XRPD results post temperature cycling and evaporation [13] | XRPD results post drying [14] | XRPD results post 40° C./75% RH [15] | XRPD results post drying [17] | XRPD results post 40° C./75% RH [18] | also measured |
| --- | --- | --- | --- | --- | --- | --- | --- | --- | --- | --- | --- | --- | --- | --- | --- | --- | --- | --- |
| O=C(O)c1ccccc1 [Benzoic acid] |  |  |  | A e | A e | A e |  |  |  |  |  |  |  |  |  |  |  |  |
| Cl [Hydrochloric acid] |  |  |  | t S |  |  |  |  |  |  |  |  | t S |  |  |  |  |  |
| O=C(O)C(O)C(O)C(=O)O (stereo not drawn) [l-Tartaric acid] | A t | A t | A t | A e | A e | A e | A t |  | A e | A e | A e | A e | A e | A e | A e | A e | A e |  |
